Key:
[1] = target: Epidermal growth factor receptor (Homo sapiens, UniProt P00533, L858R); assay: Inhibition of human recombinant GST-tagged EGFR L858R mutant expressed in baculovirus expression system reduction in phosphorylation using tyrosine 4 peptide as substrate after 60 mins FRET based Z'-LYTE assay
[2] = target: Epidermal growth factor receptor (Homo sapiens, UniProt P00533, L858R/T790M); assay: Inhibition of human recombinant GST-tagged EGFR L858R/T790M mutant expressed in baculovirus expression system reduction in phosphorylation using tyrosine 4 peptide as substrate after 60 mins FRET based Z'-LYTE assay
A-431 [3] = assay: Antiproliferative activity against human A431 cells assessed as reduction in cell viability after 24 hrs by MTT assay; assay type: functional, cell-based; details: A-431, 24 h
[4] = target: Hepatocyte growth factor receptor (Homo sapiens, UniProt P08581); assay: Inhibition of human recombinant His-tagged cMET expressed in baculovirus expression system reduction in phosphorylation using tyrosine 6 peptide as substrate after 60 mins FRET based Z'-LYTE assay
NCI-H460 [5] = assay: Antiproliferative activity against human H460 cells assessed as reduction in cell viability after 24 hrs by MTT assay; assay type: functional, cell-based; details: NCI-H460, 24 h
A549 [6] = assay: cells; details: Homo sapiens, A549, 24 h
Description: Antiproliferative activity against human A549 cells assessed as reduction in cell viability after 24 hrs by MTT assay

NCI-H460 [7] = assay: Antiproliferative activity against human H460 cells assessed as cell viability at 40 uM after 48 hrs by MTT assay relative to control; assay type: functional; details: NCI-H460, 48 h, read-out: Activity
A549 [8] = assay: Antiproliferative activity against human A549 cells assessed as cell viability at 30 uM after 48 hrs by MTT assay relative to control; assay type: functional; details: A549, 48 h, read-out: Activity
A-431 [9] = assay: Antiproliferative activity against human A431 cells assessed as cell viability at 40 uM after 48 hrs by MTT assay relative to control; assay type: functional; details: A-431, 48 h, read-out: Activity
NCI-H460 [10] = assay: Antiproliferative activity against human H460 cells assessed as cell viability at 30 uM after 48 hrs by MTT assay relative to control; assay type: functional; details: NCI-H460, 48 h, read-out: Activity
A549 [11] = assay: Antiproliferative activity against human A549 cells assessed as cell viability at 40 uM after 48 hrs by MTT assay relative to control; assay type: functional; details: A549, 48 h, read-out: Activity
A-431 [12] = assay: Antiproliferative activity against human A431 cells assessed as cell viability at 20 uM after 48 hrs by MTT assay relative to control; assay type: functional; details: A-431, 48 h, read-out: Activity
NCI-H460 [13] = assay: Antiproliferative activity against human H460 cells assessed as cell viability at 10 uM after 48 hrs by MTT assay relative to control; assay type: functional; details: NCI-H460, 48 h, read-out: Activity
A549 [14] = assay: Antiproliferative activity against human A549 cells assessed as cell viability at 20 uM after 48 hrs by MTT assay relative to control; assay type: functional; details: A549, 48 h, read-out: Activity
A-431 [15] = assay: Antiproliferative activity against human A431 cells assessed as cell viability at 10 uM after 48 hrs by MTT assay relative to control; assay type: functional; details: A-431, 48 h, read-out: Activity
NCI-H460 [16] = assay: Antiproliferative activity against human H460 cells assessed as cell viability at 20 uM after 48 hrs by MTT assay relative to control; assay type: functional; details: NCI-H460, 48 h, read-out: Activity
A549 [17] = assay: Antiproliferative activity against human A549 cells assessed as cell viability at 10 uM after 48 hrs by MTT assay relative to control; assay type: functional; details: A549, 48 h, read-out: Activity
A-431 [18] = assay: Antiproliferative activity against human A431 cells assessed as cell viability at 30 uM after 48 hrs by MTT assay relative to control; assay type: functional; details: A-431, 48 h, read-out: Activity

Epidermal growth factor receptor (Homo sapiens, UniProt P00533, L858R), sequence (P00533 25-1210 L858R limits assumed): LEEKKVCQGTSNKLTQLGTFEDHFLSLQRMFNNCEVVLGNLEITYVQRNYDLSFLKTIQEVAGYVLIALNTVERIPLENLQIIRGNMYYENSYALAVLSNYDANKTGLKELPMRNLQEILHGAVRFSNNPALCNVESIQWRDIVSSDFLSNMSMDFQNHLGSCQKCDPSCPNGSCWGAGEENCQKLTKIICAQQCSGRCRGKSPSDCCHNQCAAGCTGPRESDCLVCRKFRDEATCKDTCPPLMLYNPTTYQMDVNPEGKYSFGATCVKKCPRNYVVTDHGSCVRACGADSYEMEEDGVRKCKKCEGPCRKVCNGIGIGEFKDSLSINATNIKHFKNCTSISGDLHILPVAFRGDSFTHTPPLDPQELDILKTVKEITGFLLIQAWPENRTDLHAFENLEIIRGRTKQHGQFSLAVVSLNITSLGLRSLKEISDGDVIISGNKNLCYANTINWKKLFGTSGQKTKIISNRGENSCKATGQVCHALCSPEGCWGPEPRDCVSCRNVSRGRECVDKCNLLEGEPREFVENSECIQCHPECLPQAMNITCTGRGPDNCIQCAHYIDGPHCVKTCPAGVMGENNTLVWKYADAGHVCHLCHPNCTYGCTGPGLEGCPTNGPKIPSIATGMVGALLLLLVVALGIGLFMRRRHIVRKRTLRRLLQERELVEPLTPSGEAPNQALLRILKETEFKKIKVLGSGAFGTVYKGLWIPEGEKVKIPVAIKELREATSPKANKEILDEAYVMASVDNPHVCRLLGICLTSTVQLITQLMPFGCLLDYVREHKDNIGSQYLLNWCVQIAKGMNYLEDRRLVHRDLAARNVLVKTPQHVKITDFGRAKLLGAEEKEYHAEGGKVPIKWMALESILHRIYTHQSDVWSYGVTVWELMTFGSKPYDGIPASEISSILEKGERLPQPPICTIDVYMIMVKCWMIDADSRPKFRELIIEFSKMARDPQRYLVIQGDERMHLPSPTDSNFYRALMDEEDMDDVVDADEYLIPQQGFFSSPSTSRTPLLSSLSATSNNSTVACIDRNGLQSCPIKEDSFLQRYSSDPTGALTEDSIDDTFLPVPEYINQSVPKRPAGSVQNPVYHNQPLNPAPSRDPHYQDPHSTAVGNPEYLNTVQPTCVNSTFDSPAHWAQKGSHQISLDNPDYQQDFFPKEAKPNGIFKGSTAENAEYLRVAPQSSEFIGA
Hepatocyte growth factor receptor, sequence (P08581 whole entry): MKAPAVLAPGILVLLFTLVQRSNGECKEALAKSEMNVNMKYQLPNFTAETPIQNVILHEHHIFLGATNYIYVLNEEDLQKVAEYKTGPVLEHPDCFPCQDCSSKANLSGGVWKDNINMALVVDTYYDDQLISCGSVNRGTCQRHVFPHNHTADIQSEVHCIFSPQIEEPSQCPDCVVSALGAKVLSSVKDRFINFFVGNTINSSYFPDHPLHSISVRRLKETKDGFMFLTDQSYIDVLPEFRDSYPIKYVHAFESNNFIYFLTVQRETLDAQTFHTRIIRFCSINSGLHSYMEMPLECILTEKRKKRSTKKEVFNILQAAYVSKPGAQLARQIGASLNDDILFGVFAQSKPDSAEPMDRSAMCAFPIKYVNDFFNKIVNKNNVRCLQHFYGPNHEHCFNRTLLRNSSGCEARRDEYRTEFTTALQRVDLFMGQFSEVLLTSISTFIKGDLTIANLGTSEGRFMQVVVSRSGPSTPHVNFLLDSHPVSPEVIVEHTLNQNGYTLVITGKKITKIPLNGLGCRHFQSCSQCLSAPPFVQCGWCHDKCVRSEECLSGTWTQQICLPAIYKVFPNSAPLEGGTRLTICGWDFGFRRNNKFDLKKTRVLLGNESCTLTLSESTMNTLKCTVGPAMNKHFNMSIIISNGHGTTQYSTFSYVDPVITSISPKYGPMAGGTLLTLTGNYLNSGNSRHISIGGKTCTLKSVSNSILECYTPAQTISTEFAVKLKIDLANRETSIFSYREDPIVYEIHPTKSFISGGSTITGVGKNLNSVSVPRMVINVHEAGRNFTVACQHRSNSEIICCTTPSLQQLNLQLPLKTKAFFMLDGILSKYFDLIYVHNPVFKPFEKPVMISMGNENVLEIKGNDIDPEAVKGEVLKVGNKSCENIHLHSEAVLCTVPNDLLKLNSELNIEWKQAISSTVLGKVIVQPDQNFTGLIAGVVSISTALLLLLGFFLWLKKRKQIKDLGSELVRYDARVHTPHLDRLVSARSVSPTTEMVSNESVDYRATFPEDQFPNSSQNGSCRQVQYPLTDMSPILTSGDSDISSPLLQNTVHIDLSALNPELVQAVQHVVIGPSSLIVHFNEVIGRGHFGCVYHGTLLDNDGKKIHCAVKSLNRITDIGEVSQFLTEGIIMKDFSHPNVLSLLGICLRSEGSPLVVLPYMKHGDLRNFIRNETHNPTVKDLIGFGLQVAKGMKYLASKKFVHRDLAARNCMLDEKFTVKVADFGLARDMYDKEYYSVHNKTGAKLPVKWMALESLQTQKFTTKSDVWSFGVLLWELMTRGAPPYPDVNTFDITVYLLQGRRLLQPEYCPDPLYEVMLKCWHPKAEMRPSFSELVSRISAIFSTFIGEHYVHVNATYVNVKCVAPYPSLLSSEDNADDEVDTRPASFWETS
Epidermal growth factor receptor (Homo sapiens, UniProt P00533, L858R/T790M), sequence (P00533 25-1210 T790M/L858R limits assumed): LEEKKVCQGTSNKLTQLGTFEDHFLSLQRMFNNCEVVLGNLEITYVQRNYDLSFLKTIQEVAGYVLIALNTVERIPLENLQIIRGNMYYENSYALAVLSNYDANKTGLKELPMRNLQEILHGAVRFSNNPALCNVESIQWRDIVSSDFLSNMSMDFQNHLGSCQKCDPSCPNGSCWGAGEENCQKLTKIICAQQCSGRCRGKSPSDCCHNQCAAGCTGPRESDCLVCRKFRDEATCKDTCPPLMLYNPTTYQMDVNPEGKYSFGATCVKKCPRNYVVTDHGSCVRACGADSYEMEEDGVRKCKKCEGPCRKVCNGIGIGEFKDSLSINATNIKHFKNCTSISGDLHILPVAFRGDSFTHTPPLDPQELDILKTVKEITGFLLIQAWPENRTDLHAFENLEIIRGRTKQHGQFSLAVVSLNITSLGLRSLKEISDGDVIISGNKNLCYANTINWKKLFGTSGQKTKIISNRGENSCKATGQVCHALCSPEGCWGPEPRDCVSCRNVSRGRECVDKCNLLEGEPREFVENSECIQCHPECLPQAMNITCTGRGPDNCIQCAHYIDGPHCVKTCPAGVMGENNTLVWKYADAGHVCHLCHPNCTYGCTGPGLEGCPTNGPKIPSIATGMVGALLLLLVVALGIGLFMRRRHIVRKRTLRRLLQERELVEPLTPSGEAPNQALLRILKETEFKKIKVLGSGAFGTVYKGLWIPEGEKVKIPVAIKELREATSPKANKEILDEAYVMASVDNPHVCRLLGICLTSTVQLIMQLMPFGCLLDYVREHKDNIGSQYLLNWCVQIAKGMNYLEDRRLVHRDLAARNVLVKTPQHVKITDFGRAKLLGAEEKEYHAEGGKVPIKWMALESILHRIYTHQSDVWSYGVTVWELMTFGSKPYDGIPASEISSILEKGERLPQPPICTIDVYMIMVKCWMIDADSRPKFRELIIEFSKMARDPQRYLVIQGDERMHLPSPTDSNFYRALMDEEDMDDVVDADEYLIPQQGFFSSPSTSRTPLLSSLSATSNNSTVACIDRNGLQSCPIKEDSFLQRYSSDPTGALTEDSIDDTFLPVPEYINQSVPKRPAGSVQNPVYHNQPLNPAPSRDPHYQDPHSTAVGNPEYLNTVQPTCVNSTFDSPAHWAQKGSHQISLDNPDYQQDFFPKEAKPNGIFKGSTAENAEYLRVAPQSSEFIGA

| SMILES | IC50 [1] [nM] | IC50 [2] [nM] | IC50 (A-431 [3]) [nM] | IC50 [4] [nM] | IC50 (NCI-H460 [5]) [nM] | IC50 (A549 [6]) [nM] | viability at 40 µM (NCI-H460 [7]) [%] | viability at 30 µM (A549 [8]) [%] | viability at 40 µM (A-431 [9]) [%] | viability at 30 µM (NCI-H460 [10]) [%] | viability at 40 µM (A549 [11]) [%] | viability at 20 µM (A-431 [12]) [%] | viability at 10 µM (NCI-H460 [13]) [%] | viability at 20 µM (A549 [14]) [%] | viability at 10 µM (A-431 [15]) [%] | viability at 20 µM (NCI-H460 [16]) [%] | viability at 10 µM (A549 [17]) [%] | viability at 30 µM (A-431 [18]) [%] |
| --- | --- | --- | --- | --- | --- | --- | --- | --- | --- | --- | --- | --- | --- | --- | --- | --- | --- | --- |
| Cc1cc(=O)n2nc(SCc3ccc(Cl)cc3)nc2[nH]1 | 54 | 182 | 32500 | 113 | 56500 | 61400 |  |  |  |  |  |  |  |  |  |  |  |  |
| Cc1cc(=O)n2nc(SCc3ccc(C(C)C)cc3)nc2[nH]1 | 80 | 62 | 17300 | 50 | 31800 | 35200 | 41.8 | 65.3 | 17.7 | 56 | 43.4 | 50.7 | 86.7 | 79.6 | 71.7 | 71.6 | 89.7 | 38.8 |
| Cc1cc(=O)n2nc(SCc3ccc(F)cc3)nc2[nH]1 | 52 | 56 | > 40000 | 203 | > 80000 | > 80000 |  |  |  |  |  |  |  |  |  |  |  |  |
| Cc1cc(=O)n2nc(SCc3ccc(Cl)cc3Cl)nc2[nH]1 | 141 | 141 | 18200 | 42 | 27200 | 34900 | 34.9 | 61.2 |  | 51 | 46.8 |  | 83.5 | 77 |  | 65.7 | 88.3 |  |
| Cc1cc(=O)n2nc(SCc3cccc(C(F)(F)F)c3)nc2[nH]1 | 81 | 84 | 21800 | 94 | 65800 | 72000 |  |  |  |  |  |  |  |  |  |  |  |  |
| Cc1cc(=O)n2nc(SCc3ccc([N+](=O)[O-])cc3)nc2[nH]1 | 107 | 76 | > 40000 | 104 | > 80000 | > 80000 |  |  |  |  |  |  |  |  |  |  |  |  |
| Cc1ccc(CSc2nc3[nH]c(C)cc(=O)n3n2)cc1 | 311 | 168 | 15800 | 79 | 49900 | 50100 |  |  | 32.5 |  |  | 62.5 |  |  | 75.8 |  |  | 41.7 |
| Cc1cc(O)n2nc(SCc3cccc(Cl)c3)nc2n1 | 131 | 59 | > 40000 | 92 | > 80000 | > 80000 |  |  |  |  |  |  |  |  |  |  |  |  |
| Cc1cc(=O)n2nc(SCc3cccc([N+](=O)[O-])c3)nc2[nH]1 | 157 | 77 | > 40000 | 89 | > 80000 | > 80000 |  |  |  |  |  |  |  |  |  |  |  |  |
| Cc1cc(=O)n2nc(SCc3ccc(C(C)(C)C)cc3)nc2[nH]1 |  |  | 24400 | 65 | 59000 | 60500 |  |  |  |  |  |  |  |  |  |  |  |  |

— ChEMBL document CHEMBL4340550, “Structure based designing of triazolopyrimidone-based reversible inhibitors for kinases involved in NSCLC” (Bioorg Med Chem Lett, 2019)
